Experimental data: patent US20100190182A1, “DIAGNOSTIC COMPOSITION AND METHOD FOR THE DETECTION OF A TRICHINELLA INFECTION” (priority 2007, published 2010)
Where no end group is shown, it is not given here. The star is where a group is joined. 5FAM = O=C1OC2(c3ccc(O)cc3Oc3cc(O)ccc32)c2ccc(C(=O)*)cc21

How the values were obtained:
[1] = test system: Trichinella positive serum (antibodies against Trichinella); test: FPA discrimination between Trichinella positive and Trichinella negative serum; assay type: binding; details: mP positive serum minus mP negative serum; tracer 5 nM; buffer differs per tracer as listed in Table 2
Procedure: Table 2 depicts for some of the Trichinella peptides their ability to discriminate between a Trichinella positive and a Trichinella negative serum sample using fluorescence polarisation assay (FPA).
FPA analysis of the tracers shown in Table 2 was performed by the following procedure. A […] aliquot of the positive or negative serum was diluted with […] of buffer (PBS with detergent as indicated in Table 2) in a single well of a black coloured 96-well plate. The plate was incubated for 2 minutes at room temperature on an orbital shaker set at 1350 rpm and then incubated for another minute without shaking. Blank measurement of the sample was then performed by reading the fluorescence polarisation in a fluorescence reader (Safire2, Tecan, Switzerland) with excitation and emission wavelength set at 470 nm and 520 nm, respectively. Then, […] tracer was added to the reaction mixture to a final concentration of 5 nM and the plate was incubated at room temperature with shaking (1350 rpm) for 15 minutes and then for an additional minute without shaking. Then the plate was measured.
(§1) The mP values were calculated according to the following formula: […]
(§2) The ΔmP values were obtained by subtracting the mP values of the negative serum from the positive sera:
ΔmP=mPpositive serum=mPnegative serum

[2] = test system: anti-FLAG M2 monoclonal antibody; test: FPA analysis of FLAG model peptide tracers with anti-FLAG antibody; assay type: binding; details: TBS pH 7.2
From the text: The FLAG peptide (a well known tag, e.g. used for immuno affinity purification) was used as a model peptide to develop a labelling strategy for peptide tracers which allows chemical linking of a fluorophore to the peptide to reduce or inhibit rotation of the fluorophore relative to the peptide. The FLAG peptide and an elongated FLAG peptide were used to and coupled to 5-Carboxyfluorescein (5-CF) with a linker containing the following amino acid composition
FPA analysis of the FLAG Model peptide shown in Table 1 was performed by the following procedure.
The FLAG Model peptide tracers were diluted in TBS (containing 25 mM Tris, 0.15M NaCl, NP40 0.05%, pH 7.2) at a concentration of 8.1 nM or 2.7 nM, respectively in a single well of a black colored 96-well plate. The plate was incubated for 2 minutes at room temperature on an orbital shaker set at 1350 rpm and then incubated for another minute without shaking. Blank measurement of the sample was then performed by reading the fluorescence polarisation in a fluorescence reader (Safir2, Tecan, Switzerland) with excitation and emission wavelength set at 470 nm and 520 nm, respectively.
Then, 1, 3 or 10 molar equivalence of the anti-FLAG M2 monoclonal antibody (Sigma, Switzerland), respectively, were added and the plate was incubated at room temperature with shaking (1350 rpm) for 3 minutes and then for an additional minute without shaking. Then the plate was measured.
as §1, §2
ΔmP=mPpositive serum−mPnegative serum

5-CF-Pro-Gly(9)-FLAG [3] = test: fluorescence polarisation assay; tracer 8.1 nM, 10 molar equivalents of antibody
5-CF-Trp-Gly(9)-FLAG [4] = test: as above
5-CF-Trp(2)-Gly(9)-FLAG [5] = test: as above
5-CF-Pro-Gly(9)-FLAG [6] = test: fluorescence polarisation assay; tracer 8.1 nM, 3 molar equivalents of antibody
5-CF-Trp-Gly(9)-FLAG [7] = test: as above
5-CF-Trp(2)-Gly(9)-FLAG [8] = test: as above
5-CF-Pro-Gly(9)-FLAG [9] = test: fluorescence polarisation assay; tracer 2.7 nM, 10 molar equivalents of antibody
5-CF-Trp-Gly(9)-FLAG [10] = test: as above
5-CF-Trp(2)-Gly(9)-FLAG [11] = test: as above
5-CF-Pro-Gly(9)-FLAG [12] = test: fluorescence polarisation assay; tracer 8.1 nM, 1 molar equivalent of antibody
5-CF-Trp-Gly(9)-FLAG [13] = test: as above
5-CF-Trp(2)-Gly(9)-FLAG [14] = test: as above
5-CF-Pro-Gly(9)-FLAG [15] = test: fluorescence polarisation assay; tracer 2.7 nM, 1 molar equivalent of antibody
5-CF-Trp-Gly(9)-FLAG [16] = test: as above
5-CF-Trp(2)-Gly(9)-FLAG [17] = test: as above
5-CF-Pro-Gly(9)-FLAG [18] = test: fluorescence polarisation assay; tracer 2.7 nM, 3 molar equivalents of antibody
5-CF-Trp-Gly(9)-FLAG [19] = test: as above
5-CF-Trp(2)-Gly(9)-FLAG [20] = test: as above
[21] = test system: Trichinella positive sera (antibodies against Trichinella); test: ELISA discrimination between Trichinella positive and negative serum using SS2 peptides; assay type: binding, pig; details: peptide-coated plate; serial two fold dilutions of serum; read at 405 nm; FIGS. 8a and b
Procedure: FIGS. 8a and b show the results of 2 of the preferred SS2 peptides (SEQ IDs NO 7 and 8) tested in ELISA assays. […] Serial two fold dilutions of the serum sample were tested.
Single wells of a 96-well microtitre plate were coated with the SS2 peptides ([…]) at a concentration of […] in carbonate buffer 0.1 M (pH 9.5) overnight at 4° C. The plate was washed 4 times with 0.05% Tween 80 and then blocked with a PBS buffer containing 2% I-block and 0.1% Tween 20 for 90 minutes at 25° C.±3° C. Pig sera were diluted 50-fold in phosphate buffered saline and serial 2-fold dilutions were incubated in the microtitre plate with shaking (500 rpm) for 2 hours at room temperature. The plates were washed 4 times with 0.05% Tween 80 Detection of the bound antibodies was performed by incubation with a goat anti-pig IgG(Fc)-POD conjugate (Bethyl Laboratories, USA) at a concentration of 1.3 ug/ml for 1 h at RT with shaking (500 rpm). Following four more washes, 2′-azino-bis(3-ethylbenzthiazoline-6-sulphonic acid) (ABTS) substrate solution was added and incubated for 30 minutes, colour development was measured in a ELISA reader (Tecan, Switzerland) at a wavelength of 405 nm.

[22] = tracer 2.7 nM, 1 molar equivalent anti-FLAG antibody
[23] = tracer 2.7 nM, 3 molar equivalents anti-FLAG antibody
[24] = tracer 2.7 nM, 10 molar equivalents anti-FLAG antibody
[25] = tracer 8.1 nM, 1 molar equivalent anti-FLAG antibody
[26] = tracer 8.1 nM, 3 molar equivalents anti-FLAG antibody
[27] = tracer 8.1 nM, 10 molar equivalents anti-FLAG antibody

Substance: ALRLKRFAK (listed as Trichinella spiralis) [SEQ ID NO 28, peptide of Trichinella spiralis 53 kDa excretory/secretory antigen]
- ΔmP [1]: 41 mP

Substance: 5-CF-Pro-Gly(9)-Asp-Tyr-Lys-Asp-Asp-Asp-Asp-Lys [S-CF-Pro-Gly(9)-FLAG]
- ΔmP values [2, 22]: 5 mP
- ΔmP values [2, 23]: 15 mP
- ΔmP values [2, 24]: 33 mP
- ΔmP values [2, 25]: 14 mP
- ΔmP values [2, 26]: 33 mP
- ΔmP values [2, 27]: 62 mP

Substance: 5-CF-Trp(2)-Gly(9)-Asp-Tyr-Lys-Asp-Asp-Asp-Asp-Lys (5FAM-WWGGGGGGGGGDYKDDDDK) [5-CF-Trp(2)-Gly(9)-FLAG, FLAG model peptide tracer coupled to 5-Carboxyfluorescein via Trp-Trp linker]
- ΔmP values [2, 22]: 5 mP
- ΔmP values [2, 23]: 35 mP
- ΔmP values [2, 24]: 97 mP
- ΔmP values [2, 25]: 37 mP
- ΔmP values [2, 26]: 78 mP
- ΔmP values [2, 27]: 124 mP

Substance: VGGTDVRPHSH PWQIQLLKSET G (VGGTDVRPHSHPWQIQLLKSETG; listed as Trichinella spiralis) [SEQ ID NO 6, peptide of Trichinella spiralis newborn larvae-specific protein SS2; used as FPA tracer]
- ΔmP [1]: 35 mP

Substance: anti-FLAG M2 monoclonal antibody (Sigma, Switzerland)
- ΔmP (5-CF-Pro-Gly(9)-FLAG [3]): 62 mP
- ΔmP (5-CF-Trp-Gly(9)-FLAG [4]): 86 mP
- ΔmP (5-CF-Trp(2)-Gly(9)-FLAG [5]): 124 mP
- ΔmP (5-CF-Pro-Gly(9)-FLAG [6]): 33 mP
- ΔmP (5-CF-Trp-Gly(9)-FLAG [7]): 50 mP
- ΔmP (5-CF-Trp(2)-Gly(9)-FLAG [8]): 78 mP
- ΔmP (5-CF-Pro-Gly(9)-FLAG [9]): 33 mP
- ΔmP (5-CF-Trp-Gly(9)-FLAG [10]): 55 mP
- ΔmP (5-CF-Trp(2)-Gly(9)-FLAG [11]): 97 mP
- ΔmP (5-CF-Pro-Gly(9)-FLAG [12]): 14 mP
- ΔmP (5-CF-Trp-Gly(9)-FLAG [13]): 19 mP
- ΔmP (5-CF-Trp(2)-Gly(9)-FLAG [14]): 37 mP
- ΔmP (5-CF-Pro-Gly(9)-FLAG [15]): 5 mP
- ΔmP (5-CF-Trp-Gly(9)-FLAG [16]): 9 mP
- ΔmP (5-CF-Trp(2)-Gly(9)-FLAG [17]): 5 mP
- ΔmP (5-CF-Pro-Gly(9)-FLAG [18]): 15 mP
- ΔmP (5-CF-Trp-Gly(9)-FLAG [19]): 27 mP
- ΔmP (5-CF-Trp(2)-Gly(9)-FLAG [20]): 35 mP

Substance: KEADKSALRLKRFAKPPKGFF (KEADKSALRLKRFAKPPKGFF; listed as Trichinella spiralis) [SEQ ID NO 27, peptide of Trichinella spiralis 53 kDa excretory/secretory antigen]
- ΔmP [1]: 31 mP

Substance: NNYRGRQGIA GLGML (NNYRGRQGIAGLGML; listed as Trichinella spiralis) [SEQ ID NO 23, peptide of Trichinella spiralis 53 kDa excretory/secretory antigen]
- ΔmP [1]: 23 mP

Substance: KPFGDEIDRI LRKAF (KPFGDEIDRILRKAF; listed as Trichinella spiralis) [SEQ ID NO 26, peptide of Trichinella spiralis 53 kDa excretory/secretory antigen]
- ΔmP [1]: 31 mP

Substance: MHKITHKSIVSRHTFAVYLLVSGQK (MHKITHKSIVSRHTFAVYLLVSGQK; listed as Trichinella spiralis) [SEQ ID NO 5, peptide of Trichinella spiralis newborn larvae-specific protein SS2; used as FPA tracer]
- ΔmP [1]: 39 mP

Substance: 5-CF-Trp-Gly(9)-Asp-Tyr-Lys-Asp-Asp-Asp-Asp-Lys (5FAM-WGGGGGGGGGDYKDDDDK) [5-CF-Trp-Gly(9)-FLAG, FLAG model peptide tracer coupled to 5-Carboxyfluorescein via Trp linker]
- ΔmP values [2, 22]: 9 mP
- ΔmP values [2, 23]: 27 mP
- ΔmP values [2, 24]: 55 mP
- ΔmP values [2, 25]: 19 mP
- ΔmP values [2, 26]: 50 mP
- ΔmP values [2, 27]: 86 mP

Substance: LSTASRPTNPYTGSRPTSPSSGSRP (LSTASRPTNPYTGSRPTSPSSGSRP; listed as Trichinella spiralis) [SEQ ID NO 7, peptide of Trichinella spiralis newborn larvae-specific protein SS2]
- ability to discriminate between negative and positive sera in ELISA [21]: able to discriminate between negative and positive sera
- ΔmP [1]: 20 mP

Substance: PTYPSSGSRP TYPSSGSRP (PTYPSSGSRPTYPSSGSRP; listed as Trichinella spiralis) [SEQ ID NO 9, peptide of Trichinella spiralis newborn larvae-specific protein SS2]
- ΔmP [1]: 66 mP

Substance: VVYSKTSSSR LEMYGSF (VVYSKTSSSRLEMYGSF; listed as Trichinella spiralis) [SEQ ID NO 16, peptide of Trichinella spiralis 43 kDa secreted glycoprotein]
- ΔmP [1]: 20 mP

Substance: VVTIFRKNGK TTEVLSL (VVTIFRKNGKTTEVLSL; listed as Trichinella spiralis) [SEQ ID NO 24, peptide of Trichinella spiralis 53 kDa excretory/secretory antigen]
- ΔmP [1]: 57 mP

Substance: PTYPSSGSRPTYPSSGSRPTYPYTG (PTYPSSGSRPTYPSSGSRPTYPYTG; listed as Trichinella spiralis) [SEQ ID NO 8, peptide of Trichinella spiralis newborn larvae-specific protein SS2]
- ability to discriminate between negative and positive sera in ELISA [21]: able to discriminate between negative and positive sera
- ΔmP [1]: 66 mP

Substance: QNERQFDENKLKKLLKPLGKLYKTPSD (QNERQFDENKLKKLLKPLGKLYKTPSD; listed as Trichinella spiralis) [SEQ ID NO 19, peptide of Trichinella spiralis 53 kDa excretory/secretory antigen]
- ΔmP [1]: 33 mP

Substance: QNERQFDENK LKKLLKPLG (QNERQFDENKLKKLLKPLG; listed as Trichinella spiralis) [SEQ ID NO 20, peptide of Trichinella spiralis 53 kDa excretory/secretory antigen]
- ΔmP [1]: 28 mP
